The values below come from patent publication US20240228501A1, “IMIDAZOLE-CONTAINING CONDENSED RING DERIVATIVE, PREPARATION METHOD THEREFOR, AND APPLICATION THEREOF IN MEDICINE” (CHANGCHUN GENESCIENCE PHARMACEUTICAL CO., LTD., priority 2021, published 2024).

The assay addresses T1, human NK-3 receptor (Homo sapiens, UniProt P29371).
T1 construct: expressed in transfected cells; host or cells: HEK293
T1 sequence (P29371 1-465): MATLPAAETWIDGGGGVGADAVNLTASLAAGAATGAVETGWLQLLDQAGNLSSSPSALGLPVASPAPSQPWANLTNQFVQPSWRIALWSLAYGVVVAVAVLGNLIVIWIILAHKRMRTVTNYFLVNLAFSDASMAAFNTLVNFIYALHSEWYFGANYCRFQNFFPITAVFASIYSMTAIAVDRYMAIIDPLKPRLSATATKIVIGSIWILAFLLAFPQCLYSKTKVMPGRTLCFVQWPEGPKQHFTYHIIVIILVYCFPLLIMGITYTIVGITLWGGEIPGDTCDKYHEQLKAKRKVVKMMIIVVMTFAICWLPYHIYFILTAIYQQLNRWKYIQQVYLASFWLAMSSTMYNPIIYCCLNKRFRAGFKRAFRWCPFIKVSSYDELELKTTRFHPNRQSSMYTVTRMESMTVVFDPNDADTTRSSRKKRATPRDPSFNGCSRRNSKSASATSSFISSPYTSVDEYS
The assay is described as follows: Antagonistic activity on human NK-3 receptor in human NK-3R/HEK293 stably transfected cells (Fluo-4, FLIPR, Neurokinin B as agonist). The format is cell-based. Conditions: human NK-3R/HEK293 cells. The method, then:
Test Example 1: Determination of Activity of Compounds of the Present Invention on Human NK-3 Receptor
This method is used to determine antagonistic effects of the compounds of the present invention on the activity of human NK-3 receptor proteins expressed in cell lines stably transfected with human NK-3R/HEK293.
2.1 The cell lines stably transfected with human NK-3R/HEK293 were inoculated in a 384-well cell culture plate at a inoculation density of 12,000 cells/well/25 μL, and cultured at 37° C. and 5% CO2 overnight;
2.2 20× Component A was frozen and thawed to room temperature, diluted 2× with Assay Buffer to working concentration, and kept at room temperature for later use;
2.3 The cell culture plate was equilibrated at room temperature for 10 min, the culture medium was removed, and 20 μL of Assay Buffer and 20 μL of 2× Component A […] were added, followed by centrifugation at 200 g at room temperature for 3-5 sec, and incubation at 37° C. for 2 h;
2.4 The compound was diluted 3 times with DMSO in 384 PP_DMSO plate, and then 240 nl/well of the compound was transferred into a working plate with Echo 550, centrifugated at 200 g at room temperature for 1 min; 40 μl of Assay Buffer was added into the working plate, centrifugated at 200 g at room temperature for 1 min, and then fully mixed in an oscillator at 2500 rpm for 20 min, and then centrifugated at 200 g at room temperature for 1 min for later use;
2.5 2.5 nM Neurokinin B TFA (6×) was prepared from Assay Buffer, 50 uL of which was transferred onto 3657 plate for later use;
2.6 The cell culture plate was taken out and left to stand at room temperature for 10 min, then […] the compound diluted in step 2.4 was added into corresponding wells, and the cell culture plate was left to stand at 25° C. for 30 min; and
2.7 10 μL of the compound diluted in step 2.5 was added into the corresponding experimental wells with FLIPR Tetra, and data was collected.
The antagonistic activity of the compounds of the present invention on the human NK-3 receptor was determined through the above experiments, to obtain inhibition curves of the compounds of the present invention and determine concentrations (IC50) of the corresponding compounds that inhibit 50% of the reference agonist.
As usually defined, the IC50 is the concentration needed to halve the response being measured. Read a high IC50 as a need for much substance. In turn, `Cc1nsc(-c2nc(N3C[C@H](O)CC3=O)c3n2CCN(C(=O)c2ccc(F)cc2)[C@@H]3C)n1` [Compound 103, (R)-1-((R)-7-(4-fluorobenzoyl)-8-methyl-3-(3-methyl-1,2,4-thiadiazol-5-yl)-5,6,7,8-tetrahydroimidazo[1,5-a]pyrazin-1-yl)-4-hydroxypyrrolidin-2-one] gave an IC50 of 0.0057 µM.
In turn, `Cc1nsc(-c2nc(N3C[C@@H](O)CC3=O)c3n2CCN(C(=O)c2ccc(F)cc2)[C@@H]3C)n1` [Compound 104, (S)-1-((R)-7-(4-fluorobenzoyl)-8-methyl-3-(3-methyl-1,2,4-thiadiazol-5-yl)-5,6,7,8-tetrahydroimidazo[1,5-a]pyrazin-1-yl)-4-hydroxypyrrolidin-2-one] had an IC50 of 0.031 µM.
Under `Cc1nsc(-c2nc(N3CCOCCC3=O)c3n2CCN(C(=O)c2ccc(F)cc2)[C@@H]3C)n1` [Compound 114, (R)-1-[7-(4-fluorobenzoyl)-8-methyl-3-(3-methyl-1,2,4-thiadiazol-5-yl)-5,6,7,8-tetrahydroimidazo[1,5-a]pyrazin-1-yl]-1,4-azepan-5-one] stands 0.0287 µM; under `CO[C@@H]1CC(=O)N(c2nc(-c3nc(C)ns3)n3c2[C@@H](C)N(C(=O)c2ccc(F)cc2)CC3)C1` [Compound 115, (R)-1-[(R)-7-(4-fluorobenzoyl)-8-methyl-3-(3-methyl-1,2,4-thiadiazol-5-yl)-5,6,7,8-tetrahydroimidazo[1,5-a]pyrazin-1-yl]-4-methoxypyrrolidin-2-one], 0.0227 µM.
Under `Cc1nsc(-c2nc(N3CCC(O)CC3=O)c3n2CCN(C(=O)c2ccc(F)cc2)[C@@H]3C)n1` (stereo partly drawn) [Compound 116, 1-[(R)-7-(4-fluorobenzoyl)-8-methyl-3-(3-methyl-1,2,4-thiadiazol-5-yl)-5,6,7,8-tetrahydroimidazo[1,5-a]pyrazin-1-yl]-4-hydroxypiperidin-2-one] stands 0.0119 µM; under `Cc1nsc(-c2nc(N3CCCCCC3=O)c3n2CCN(C(=O)c2ccc(F)cc2)[C@@H]3C)n1` [Compound 117], 0.0725 µM.
The molecule `C[C@@H]1c2c(N3CCCC3=O)nc(-c3nc(C(F)(F)F)cs3)n2CCN1C(=O)c1ccc(F)cc1` [Compound 118, (R)-1-(7-(4-fluorobenzoyl)-8-methyl-3-(4-(trifluoromethyl)thiazol-2-yl)-5,6,7,8-tetrahydroimidazo[1,5-a]pyrazin-1-yl)pyrrolidin-2-one] showed an IC50 of 0.0517 µM. The IC50 values of the last two molecules are within 1.5-fold of each other.
Under `C[C@@H]1c2c(N3C[C@H](O)CC3=O)nc(-c3nc(C(F)(F)F)cs3)n2CCN1C(=O)c1ccc(F)cc1` [Compound 120, (R)-1-((R)-7-(4-fluorobenzoyl)-8-methyl-3-(4-(trifluoromethyl)thiazol-2-yl)-5,6,7,8-tetrahydroimidazo[1,5-a]pyrazin-1-yl)-4-hydroxypyrrolidin-2-one] stands 0.0188 µM.
Under `Cc1nsc(-c2nc(N3CCNCC3=O)c3n2CCN(C(=O)c2ccc(F)cc2)[C@@H]3C)n1` [Compound 123, (R)-1-(7-(4-fluorobenzoyl)-8-methyl-3-(3-methyl-1,2,4-thiadiazol-5-yl)-5,6,7,8-tetrahydroimidazo[1,5-a]pyrazin-1-yl)piperazin-2-one] stands 0.023 µM; under `Cc1nsc(-c2nc(N3CCCC3=O)c3n2CCN(C(=O)c2ccc(F)cc2C)[C@@H]3C)n1` [Compound 128, (R)-1-(7-(4-fluoro-2-methylbenzoyl)-8-methyl-3-(3-methyl-1,2,4-thiadiazol-5-yl)-5,6,7,8-tetrahydroimidazo[1,5-a]pyrazin-1-yl)pyrrolidin-2-one], 0.0846 µM; under `Cc1nsc(-c2nc(N3C[C@H](N)CC3=O)c3n2CCN(C(=O)c2ccc(F)cc2)[C@@H]3C)n1` [Compound 129], 0.0425 µM.
Take `CC(=O)N[C@@H]1CC(=O)N(c2nc(-c3nc(C)ns3)n3c2[C@@H](C)N(C(=O)c2ccc(F)cc2)CC3)C1` [Compound 132, N—{(R)-1-[(R)-7-(4-fluorobenzoyl)-8-methyl-3-(3-methyl-1,2,4-thiadiazol-5-yl)-5,6,7,8-tetrahydroimidazo[1,5-a]pyrazin-1-yl]-5-oxopyrrolidin-3-yl}acetamide]: the IC50 is 0.0161 µM. Compared with the last molecule, the IC50 is about 2.6-fold lower.
`CC(=O)O[C@@H]1CC(=O)N(c2nc(-c3nc(C)ns3)n3c2[C@@H](C)N(C(=O)c2ccc(F)cc2)CC3)C1` [Compound 133, (R)-1-[(R)-7-(4-fluorobenzoyl)-8-methyl-3-(3-methyl-1,2,4-thiadiazol-5-yl)-5,6,7,8-tetrahydroimidazo[1,5-a]pyrazin-1-yl]-5-oxopyrrolidin-3-ylacetate] returned an IC50 of 0.0186 µM. The IC50 values of the last two molecules are within 1.5-fold of each other.
In turn, `Cc1nsc(-c2nc(N3COCC3=O)c3n2CCN(C(=O)c2ccc(F)cc2)C3C)n1` (stereo not drawn) [Compound 169, 3-(7-(4-fluorobenzoyl)-8-methyl-3-(3-methyl-1,2,4-thiadiazol-5-yl)-5,6,7,8-tetrahydroimidazo[1,5-a]pyrazin-1-yl)oxazolidin-4-one] showed an IC50 of 0.0657 µM. Compared with the last molecule, the IC50 is about 3.5-fold higher.
`C[C@@H]1c2c(N3CCCC3=O)nc(-c3nc(CF)ns3)n2CCN1C(=O)c1ccc(F)cc1` [Compound 184, (R)-1-(7-(4-fluorobenzoyl)-3-(3-(fluoromethyl)-1,2,4-thiadiazol-5-yl)-8-methyl-5,6,7,8-tetrahydroimidazo[1,5-a]pyrazin-1-yl)pyrrolidin-2-one]: the IC50 was 0.0465 µM.
To `C[C@@H]1c2c(N3CCCC3=O)nc(-c3nc([C@@H](C)F)ns3)n2CCN1C(=O)c1ccc(F)cc1` [Compound 186, 1-((R)-7-(4-fluorobenzoyl)-3-(3-((R)-1-fluoroethyl)-1,2,4-thiadiazol-5-yl)-8-methyl-5,6,7,8-tetrahydroimidazo[1,5-a]pyrazin-1-yl)pyrrolidin-2-one] belongs 0.0881 µM.
The molecule `Cc1nsc(-c2nc(C(F)F)c3n2CCN(C(=O)c2ccc(F)cc2)[C@@H]3C)n1` [Compound 197, (R)-(1-(difluoromethyl)-8-methyl-3-(3-methyl-1,2,4-thiadiazol-5-yl)-5,6-dihydroimidazo[1,5-a]pyrazin-7 (8H)-yl)(4-fluorophenyl)methanone] returned a half-maximal inhibitory concentration (IC50) of 0.216 µM. Against the preceding molecule, the IC50 is about 2.5-fold higher.
To `Cc1nsc(-c2nc([C@H]3CCCC3=O)c3n2CCN(C(=O)c2ccc(F)cc2)[C@@H]3C)n1` [Compound 211, (R)-2-((R)-7-(4-fluorobenzoyl)-8-methyl-3-(3-methyl-1,2,4-thiadiazol-5-yl)-5,6,7,8-tetrahydroimidazo[1,5-a]pyrazin-1-yl)cyclopentan-1-one] belongs 0.284 µM; to `CC(=O)Cc1nc(-c2nc(C)ns2)n2c1[C@@H](C)N(C(=O)c1ccc(F)cc1)CC2` [Compound 214, (R)-1-(7-(4-fluorobenzoyl)-8-methyl-3-(3-methyl-1,2,4-thiadiazol-5-yl)-5,6,7,8-tetrahydroimidazo[1,5-a]pyrazin-1-yl)propan-2-one], 0.246 µM; to `Cc1nsc(-c2nc(-c3ccco3)c3n2CCN(C(=O)c2ccc(F)cc2)[C@@H]3C)n1` [Compound 218, (R)-(4-fluorophenyl)(1-(furan-2-yl)-8-methyl-3-(3-methyl-1,2,4-thiadiazol-5-yl)-5,6-dihydroimidazo[1,5-a]pyrazin-7 (8H)-yl)methanone], 0.225 µM.
`Cc1nsc(-c2nc(N3CCCC3=O)c3n2CCN(C(=O)c2cc(F)c(F)c(F)c2)[C@@H]3C)n1` [Compound 220, (R)-1-(8-methyl-3-(3-methyl-1,2,4-thiadiazol-5-yl)-7-(3,4,5-trifluorobenzoyl)-5,6,7,8-tetrahydroimidazo[1,5-a]pyrazin-1-yl)pyrrolidin-2-one]: the IC50 was 0.028 µM.
